Where “and” joins values, the source holds several entries; their conditions need not be identical. Equal entries are not always repeated.
Experiments:
[1] = Optical absorption spectra; type: physicochemical
[2] = system: rabbit antiserum to thyroxine / dihydrofolate reductase; assay: Enzyme inhibitor-labeled immunoassay for thyroxine in serum; type: biochemical; settings: 0.5 mM fenclofenac in antibody reagent; for Absorbance Change per Minute: 340 nm
Method: An enzyme inhibitor-labeled immunoassay (U.S. Pat. No. 4,134,792) for thyroxine in serum was conducted using fenclofenac as the TBP blocking agent. Serum standards in 40 μl aliquots containing known concentrations of thyroxine were combined with 0.2 ml of an antibody reagent consisting of 21 μl rabbit antiserum to thyroxine in 1 ml of 0.1M sodium phosphate buffer, pH 6.5, containing 0.3M potassium chloride, 0.05% sodium azide, and 0.5 mM fencolfenac. After a 30 second incubation, to each mixture was added 0.2 ml of a conjugate reagent consisting of 0.63 mg/ml NADPH (0.65 mM), 0.0175 μM of a methotrexate-thyroxine conjugate [prepared as described in the U.S. patent application filed on even date herewith, assigned to the present assignee, entitled "Methotrexate-LabeledIodothyronine Conjugates Ser. No. 318,028, which application is incorporated herein by reference] in 10 mM sodium carbonate buffer, pH 9.5. […] After a further 5 minute incubation, to each mixture was added 50 μl of 2.5 mM dihydrofolate in 0.1M Tris.HCl, pH 8.5. Forty-five (45) seconds later, the absorbance of each solution at 340 nm was read over a 1 minute period.

[3] = target: apoglucose oxidase (Aspergillus niger, UniProt P13006); assay: Activation of apoglucose oxidase by FAD-theophylline conjugate (fenclofenac); type: biochemical; settings: 5 min, 37° C., read-out: Percent Apoglucose Oxidase Activity
Sequence of apoglucose oxidase (P13006 17-605): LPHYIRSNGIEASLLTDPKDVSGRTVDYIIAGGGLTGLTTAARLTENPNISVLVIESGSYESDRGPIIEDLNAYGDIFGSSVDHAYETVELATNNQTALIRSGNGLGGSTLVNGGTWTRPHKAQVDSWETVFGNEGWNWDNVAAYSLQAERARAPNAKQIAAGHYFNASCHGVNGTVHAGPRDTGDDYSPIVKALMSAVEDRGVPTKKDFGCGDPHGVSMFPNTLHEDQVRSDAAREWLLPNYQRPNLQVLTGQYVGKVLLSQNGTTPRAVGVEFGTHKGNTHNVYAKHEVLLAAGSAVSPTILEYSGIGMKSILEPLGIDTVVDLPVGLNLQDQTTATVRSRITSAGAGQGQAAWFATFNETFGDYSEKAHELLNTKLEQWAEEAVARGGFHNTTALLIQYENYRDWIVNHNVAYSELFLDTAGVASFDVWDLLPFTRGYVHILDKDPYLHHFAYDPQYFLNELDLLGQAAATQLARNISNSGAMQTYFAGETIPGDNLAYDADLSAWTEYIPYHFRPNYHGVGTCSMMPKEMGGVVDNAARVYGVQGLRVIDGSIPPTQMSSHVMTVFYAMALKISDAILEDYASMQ
Method: A series of apoenzyme reactivation measurements were set up with different concentrations of fenclofenac. The assays were performed at 37° C. and the final reagent concentrations in 0.1M phosphate buffer, pH 7.0, were 1.0 nanomolar (nM) FAD-labeled conjugate (an FAD-theophylline conjugate as described in U.S. Pat. No. 4,238,565), 50 nM apoglucose oxidase (U.S. Pat. No. 4,268,631), 2.5 μl/ml anti(glucose oxidase) antiserum, 2 mM sodium dichlorohydroxybenzene sulfonate (DHSA), 0.2 mM 4-aminoantipyrine, 0.1M glucose, 20 μg/ml peroxidase, and 0.1% (w/v) bovine serum albumin. The apoenzyme and anti(glucose oxidase) were preincubated and the reaction then started by simultaneously mixing in the other reagents. The reaction mixtures were incubated for 5 minutes and then absorbance at 520 nm read. The results shown in Table 4 relate fenclofenac concentration to the generation of active glucose oxidase.

[4] = system: serum proteins (thyroxine binding protein, TBP); assay: Dissociation of thyroxine from human serum, second experiment (Seralute Sephadex column, pH 7.0); settings: for release and block the binding of protein-bound iodothyronine: summary of both experiments of Example I; for Percent Dissociated: pH 7.0, 5 min
Method: (§1) Radioactive iodine labeled thyroxine (^125 I-thyroxine obtained from Amersham-Searle, Arlington Heights, IL, USA) was equilibrated with 5 ml of normal human serum for 48 hours at 4° C. […] After 5 minutes of incubation at room temperature, a 165 μl aliquot was applied to a Sephadex® column from a Seralute® thyroxine assay kit (Miles Laboratories, Inc., Ames Division, Elkhart, IN, USA), which had been equilibrated with 0.1M sodium phosphate, pH 7.0. The total radioactivity applied to the columns was measured and the undissociated material was washed through the column with 3 ml of buffer. The columns were counted to determine the percentage of thyroxine dissociated from the serum proteins.

[5] = system: dihydrofolate reductase; assay: Effect on the activity of dihydrofolate reductase; type: biochemical; settings: for Absorbance Change Over 10 Minutes: 560 nm, 37° C.
Method: Assay mixtures were prepared to contain various concentrations of fenclofenac and, in a 1 ml final volume at 37° C., 0.3 mM thiazoyl blue, […] dihydrofolate, 0.5 mM NADPH, and 0.012 Units/ml of dihydrofolate reductase. The absorbance of each reaction mixture at 560 nm was read over a 10 minute incubation period at 37° C.

[6] = system: rabbit antibody to thyroxine; assay: Radioimmunoassay for thyroxine in serum with fenclofenac as TBP blocking agent; type: binding; settings: 0.67 mM fenclofenac
Method: A radioimmunoassay for thyroxine in serum was conducted using fenclofenac as the TBP blocking agent. Serum standards in 100 μl aliquots containing known concentrations of thyroxine were combined with 290 μl of 0.1M sodium phosphate buffer, pH 6.5, an amount of fenclofenac to give a concentration of 0.67 mM in the final assay mixture, 2 μl of rabbit antibody to thyroxine, and a fixed amount of ^125 I-thyroxine (approximately 34,000 counts per minute per 100 μl in the final volume). After incubation at room temperature for 2 hours, 400 μl of 50% (w/v) polyethyleneglycol was added and the resulting precipitates collected by centrifugation. The radioactivity of each precipitate was then measured. The results are shown in Table 3 (μg/dl is micrograms per deciliter).

[7] = system: serum proteins (thyroxine binding protein, TBP); assay: Effect of pH on the dissociation of iodothyronine from serum proteins; design: species or system human; settings: for Percent Dissociated: dissociating agent 2.0 mM
Method: as §1
Using the column procedure described in the second study in Example 1, the pH of the 0.1M sodium phosphate was varied and the concentration of the dissociating agent held constant at 2.0 mM. The columns were equilibrated with buffer containing the dissociating agent at the given pH and 165 μl of the serum diluted in buffer at the given pH (as described above) was applied to the column. The total counts were measured and then the columns were washed with buffer at the given pH. The counts remaining on the column represent the percentage of iodothyronine dissociated.

O=C(O)Cc1ccccc1Oc1ccc(Cl)cc1Cl [Fenclofenac, 2-(2,4-dichlorophenoxy)phenylacetic acid]
optical absorption above 300 nm ([1]; 0.5 mM solution in 0.1M sodium phosphate buffer, pH 6.5): no significant absorption above 300 nanometers | visible color of solution ([1]; 50 mM solution in dilute sodium hydroxide): no visible color | λmax ([1]; in 0.1M sodium hydroxide): 275 nanometers and 269 nanometers | λmin ([1]; in 0.1M sodium hydroxide): 257 nanometers | ε max (NaOH), extinction coefficient ([1]; in 0.1M sodium hydroxide, at λmax): 2060 M⁻¹ cm⁻¹ and 2050 M⁻¹ cm⁻¹ | ε min (NaOH), extinction coefficient ([1]; in 0.1M sodium hydroxide, at λmin): 1520 M⁻¹ cm⁻¹ | interference with the spectrophotometric response at 340 nm or the enzymatic reaction [2]: did not substantially interfere | Absorbance Change per Minute ([2]; thyroxine standard 0 μg/dL): 0.1682 | Absorbance Change per Minute ([2]; thyroxine standard 1.0 μg/dL): 0.1659 | Absorbance Change per Minute ([2]; thyroxine standard 2.5 μg/dL): 0.1648 | Absorbance Change per Minute ([2]; thyroxine standard 10. μg/dL): 0.1571 | Absorbance Change per Minute ([2]; thyroxine standard 20. μg/dL): 0.1498 | activity at 500 µM ([3]; pH 7, 0.5 mM fenclofenac): 81% | activity at 1000 µM ([3]; pH 7, 1.0 mM fenclofenac): 66% | activity at 1500 µM ([3]; pH 7, 1.5 mM fenclofenac): 61% | activity at 2000 µM ([3]; pH 7, 2.0 mM fenclofenac): 64% | activity at 2500 µM ([3]; pH 7, 2.5 mM fenclofenac): 47% | release and block the binding of protein-bound iodothyronine ([4]; 0.25 mM in immunoassay reaction mixture): 40-50% | release and block the binding of protein-bound iodothyronine ([4]; 0.50 mM in immunoassay reaction mixture): 60-70% | Percent Dissociated ([4]; dissociating agent 0.25 mM): 40% | Percent Dissociated ([4]; dissociating agent 0.50 mM): 61% | Percent Dissociated ([4]; dissociating agent 1.00 mM): 71% | Percent Dissociated ([4]; dissociating agent 2.00 mM): 75% | Percent Dissociated ([4]; dissociating agent 4.00 mM): 79% | Percent Dissociated ([4]; dissociating agent 8.00 mM): 81% | Absorbance Change Over 10 Minutes ([5]; 0.1 mM fenclofenac): 0.359 | Absorbance Change Over 10 Minutes ([5]; 0.2 mM fenclofenac): 0.365 | Absorbance Change Over 10 Minutes ([5]; 0.5 mM fenclofenac): 0.355 | Absorbance Change Over 10 Minutes ([5]; 1.0 mM fenclofenac): 0.332 | Absorbance Change Over 10 Minutes ([5]; 2.5 mM fenclofenac): 0.273 | Absorbance Change Over 10 Minutes ([5]; 5.0 mM fenclofenac): 0.118 | inhibition of enzyme activity (dihydrofolate reductase) ([5]; concentrations below 1.0 mM): did not give substantial inhibition | Counts per Minute in Precipitate ([6]; thyroxine standard 0 μg/dl): 23,700 Counts per Minute | Counts per Minute in Precipitate ([6]; thyroxine standard 1.0 μg/dl): 21,800 Counts per Minute | Counts per Minute in Precipitate ([6]; thyroxine standard 2.5 μg/dl): 17,300 Counts per Minute | Counts per Minute in Precipitate ([6]; thyroxine standard 5.0 μg/dl): 14,400 Counts per Minute | Counts per Minute in Precipitate ([6]; thyroxine standard 10.0 μg/dl): 10,000 Counts per Minute | Counts per Minute in Precipitate ([6]; thyroxine standard 20.0 μg/dl): 7,500 Counts per Minute | pH dependence of the dissociation of iodothyronine from serum proteins ([7]; over the range pH 6.0-8.0, 2.0 mM): independent of pH | Percent Dissociated ([7]; pH 6.0): 84% | Percent Dissociated ([7]; pH 6.5): 84% | Percent Dissociated ([7]; pH 7.0): 86% | Percent Dissociated ([7]; pH 7.5): 85% | Percent Dissociated ([7]; pH 8.0): 83%

Reference: US4468469A, “Substituted phenylacetic acids and salts as TBP blocking agents in iodothyronine immunoassays” (Miles Laboratories, Inc., priority 1982, dated 1984)
